From PubChem BioAssay AID493144 (Sanford-Burnham Center for Chemical Genomics, 2011)
Calls of active or inactive are those of the source. The rule behind the calls is not given here.

Biological target: Intestinal-type alkaline phosphatase (Homo sapiens) (UniProt P09923)
Assay: inhibition of human intestinal phosphatase enzyme – biochemical, human enzyme for mouse series, mouse IAP inhibitor project, SAR follow-up (AID 493144)
Details: purified human intestinal alkaline phosphatase, enzymatic activity

Chain of Intestinal-type alkaline phosphatase (Homo sapiens) (P09923 whole entry, looked up): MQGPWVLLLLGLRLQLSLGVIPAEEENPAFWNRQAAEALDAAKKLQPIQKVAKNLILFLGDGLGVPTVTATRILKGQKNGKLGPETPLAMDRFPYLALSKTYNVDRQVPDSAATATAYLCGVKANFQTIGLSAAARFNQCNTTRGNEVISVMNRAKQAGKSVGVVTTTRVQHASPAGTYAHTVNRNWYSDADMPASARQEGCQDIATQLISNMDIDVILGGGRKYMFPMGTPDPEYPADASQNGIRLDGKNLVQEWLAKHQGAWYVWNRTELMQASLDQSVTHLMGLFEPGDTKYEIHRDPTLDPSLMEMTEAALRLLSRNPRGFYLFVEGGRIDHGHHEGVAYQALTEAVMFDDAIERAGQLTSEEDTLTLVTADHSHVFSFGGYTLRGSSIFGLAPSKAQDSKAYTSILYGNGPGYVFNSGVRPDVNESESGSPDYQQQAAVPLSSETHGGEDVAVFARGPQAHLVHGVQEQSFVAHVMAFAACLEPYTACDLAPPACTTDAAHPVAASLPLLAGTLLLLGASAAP

| Structure (SMILES) | IC50 |
| --- | --- |
| COc1cccc(-c2cccc(NC(=O)C3CCN(Cc4ccc(C)o4)CC3)c2)c1 | > 100 µM (inactive) |
| O=C(Nc1cccc(-c2cccc(Cl)c2)c1)C1CCN(C2CCC2)CC1 | > 100 µM (inactive) |
| COCc1ccc(CN2CCC(C(=O)Nc3cccc(-c4cccc(Cl)c4)c3)CC2)o1 | > 100 µM (inactive) |
| CCn1nc(C)c(CN2CCC(C(=O)Nc3cccc(-c4cccc(Cl)c4)c3)CC2)c1C | > 100 µM (inactive) |
| CCn1cc(CN2CCC(C(=O)Nc3cccc(-c4cccc(F)c4)c3)CC2)cn1 | > 100 µM (inactive) |
| O=C(CN1C(=O)/C(=C/c2ccco2)SC1=S)Nc1ccc(C(=O)O)cc1 | > 100 µM (inactive) |
| S=C(NCCC(c1ccccc1)c1ccccc1)Nc1ccc(Nc2ccccc2)cc1 | > 100 µM (inactive) |
| CC(C)n1cc(CN2CCC(C(=O)Nc3cccc(-c4cccc(F)c4)c3)CC2)cn1 | > 100 µM (inactive) |
| CC1(c2ccccc2)CC(C)(C)N(C(=S)Nc2ccccc2)c2ccccc21 (stereo not drawn) | > 100 µM (inactive) |
| O=C(CN1C(=O)/C(=C/c2ccco2)SC1=S)Nc1cccc(C(=O)O)c1 | > 100 µM (inactive) |
| CCN1CCN(S(=O)(=O)c2ccc3[nH]c(=O)oc3c2)CC1 | > 100 µM (inactive) |
| Cn1cc(CN2CCC(C(=O)Nc3cccc(-c4cccc(Cl)c4)c3)CC2)cn1 | > 100 µM (inactive) |
| Cc1cc(NC(=O)CCNS(=O)(=O)c2ccc3[nH]c(=O)oc3c2)ccc1Br | > 100 µM (inactive) |
| Cc1nn(C(C)C)c(C)c1CN1CCC(C(=O)Nc2cccc(-c3cccc(F)c3)c2)CC1 | > 100 µM (inactive) |
| CN1CCC(=NNC(=O)c2cc(O)c(O)c(O)c2)CC1 | > 100 µM (inactive) |
| O=S(=O)(Nc1ncccn1)c1ccc(NC(=S)NCCC(c2ccccc2)c2ccccc2)cc1 | > 100 µM (inactive) |
| CCn1ncc(CN2CCC(C(=O)Nc3cccc(-c4cccc(F)c4)c3)CC2)c1C | > 100 µM (inactive) |

| Structure (SMILES) | IC50 |
| --- | --- |
| CCn1nc(C)c(CN2CCC(C(=O)Nc3cccc(-c4cccc(F)c4)c3)CC2)c1C | > 100 µM (inactive) |
| CCn1cc(CN2CCC(C(=O)Nc3cccc(-c4cccc(OC)c4)c3)CC2)c(C)n1 | > 100 µM (inactive) |
| Cc1nn(C)c(Cl)c1CN1CCC(C(=O)Nc2cccc(-c3cccc(F)c3)c2)CC1 | > 100 µM (inactive) |
| CC(C)N1CCC(=NNC(=O)c2cc(O)c(O)c(O)c2)CC1 | > 100 µM (inactive) |
| Cn1cc(CN2CCC(C(=O)Nc3cccc(-c4cccc(F)c4)c3)CC2)cn1 | > 100 µM (inactive) |
| COc1cc(NC(=S)NCCC(c2ccccc2)c2ccccc2)cc(OC)c1 | > 100 µM (inactive) |
| CCn1cc(CN2CCC(C(=O)Nc3cccc(-c4cccc(OC)c4)c3)CC2)cn1 | > 100 µM (inactive) |
| CCn1cc(CN2CCC(C(=O)Nc3cccc(-c4cccc(Cl)c4)c3)CC2)cn1 | > 100 µM (inactive) |
| COC(=O)c1cc(NC(=S)NCCC(c2ccccc2)c2ccccc2)cc(C(=O)OC)c1 | > 100 µM (inactive) |
| CCOC(=O)c1ccc(NC(=S)NCCC(c2ccccc2)c2ccccc2)cc1 | > 100 µM (inactive) |
| CC(C)n1cc(CN2CCC(C(=O)Nc3cccc(-c4cccc(Cl)c4)c3)CC2)cn1 | > 100 µM (inactive) |
| CCCn1ncc(CN2CCC(C(=O)Nc3cccc(-c4cccc(F)c4)c3)CC2)c1C | > 100 µM (inactive) |
| Cc1c(CN2CCC(C(=O)Nc3cccc(-c4cccc(Cl)c4)c3)CC2)cnn1C | > 100 µM (inactive) |
| C=CCn1cc(CN2CCC(C(=O)Nc3cccc(-c4cccc(F)c4)c3)CC2)c(C)n1 | > 100 µM (inactive) |
| Cc1ccc(NC(=O)CCNS(=O)(=O)c2ccc3[nH]c(=O)oc3c2)cc1C | > 100 µM (inactive) |
| C=CCn1cc(CN2CCC(C(=O)Nc3cccc(-c4cccc(Cl)c4)c3)CC2)c(C)n1 | > 100 µM (inactive) |

Further lines, results first:

| IC50 | Structure (SMILES) |
| --- | --- |
| > 100 µM (inactive) | S=C(NCCC(c1ccccc1)c1ccccc1)Nc1cccc(Cl)c1 |
| > 100 µM (inactive) | Cc1cccc(NC(=S)NCCC(c2ccccc2)c2ccccc2)c1C |
| 21.4 µM | CCc1ccccc1Nc1nc(-c2ccc(O)c(O)c2)cs1 |
| > 100 µM (inactive) | O=C(Nc1cccc(-c2cccc(Cl)c2)c1)C1CCN(Cc2ccc(CO)o2)CC1 |
| > 100 µM (inactive) | CC(C)c1ccccc1NC(=S)NCCC(c1ccccc1)c1ccccc1 |
| > 100 µM (inactive) | Cc1c(Cl)cccc1Nc1nc(-c2ccc(O)c(O)c2)cs1 |
| > 100 µM (inactive) | S=C(NCCC(c1ccccc1)c1ccccc1)Nc1ccc(Cl)cc1 |
| > 100 µM (inactive) | Cc1ccc(NC(=S)NCCC(c2ccccc2)c2ccccc2)cc1 |
| > 100 µM (inactive) | Fc1ccccc1NC(=S)NCCC(c1ccccc1)c1ccccc1 |
| > 100 µM (inactive) | NS(=O)(=O)c1ccc(NC(=S)NCCC(c2ccccc2)c2ccccc2)cc1 |
| > 100 µM (inactive) | O=C(CN1C(=O)/C(=C\c2ccco2)SC1=S)Nc1ccccc1C(=O)O |
| > 100 µM (inactive) | Cc1ccc(NC(=S)NCCC(c2ccccc2)c2ccccc2)cc1C |
| > 100 µM (inactive) | S=C(NCCC(c1ccccc1)c1ccccc1)Nc1ccccc1 |
| 44.1 µM | Oc1ccc(-c2csc(Nc3cccc4ccccc34)n2)cc1O |
| > 100 µM (inactive) | Cc1cc(=O)oc2cc(NC(=S)NCCC(c3ccccc3)c3ccccc3)ccc12 |
| > 100 µM (inactive) | S=C(NCCC(c1ccccc1)c1ccccc1)Nc1ccc(Cl)c(Cl)c1 |
| > 100 µM (inactive) | COc1ccc(Cl)cc1NC(=S)NCCC(c1ccccc1)c1ccccc1 |
| > 100 µM (inactive) | COc1ccc(NC(=S)NCCC(c2ccccc2)c2ccccc2)cc1 |

| IC50 | Structure (SMILES) |
| --- | --- |
| > 100 µM (inactive) | Cc1ccc(CN2CCC(C(=O)Nc3cccc(-c4cccc(F)c4)c3)CC2)o1 |
| > 100 µM (inactive) | O=C(Nc1cccc(-c2cccc(F)c2)c1)C1CCN(Cc2ccc(CO)o2)CC1 |
| > 100 µM (inactive) | COc1ccc(Cl)cc1Nc1nc(-c2ccc(O)c(O)c2)cs1 |
| > 100 µM (inactive) | Cc1cc(C)cc(NC(=S)NCCC(c2ccccc2)c2ccccc2)c1 |
| > 100 µM (inactive) | Fc1ccc(NC(=S)NCCC(c2ccccc2)c2ccccc2)cc1Cl |
| > 100 µM (inactive) | CN(C)S(=O)(=O)c1cccc(NC(=S)NCCC(c2ccccc2)c2ccccc2)c1 |
| > 100 µM (inactive) | COc1cccc(NC(=S)NCCC(c2ccccc2)c2ccccc2)c1 |
| > 100 µM (inactive) | COc1cccc(-c2cccc(NC(=O)C3CCN(Cc4ccc(CO)o4)CC3)c2)c1 |
| > 100 µM (inactive) | Cc1cc(Cl)ccc1NC(=S)NCCC(c1ccccc1)c1ccccc1 |
| > 100 µM (inactive) | FC(F)(F)c1cccc(NC(=S)NCCC(c2ccccc2)c2ccccc2)c1 |
| > 100 µM (inactive) | COc1ccc(C(=O)CSc2n[nH]c(-c3ccccc3)n2)cc1OC |
| 14 µM | CCn1c(SCC(=O)c2ccc(O)c(O)c2)nnc1-c1ccccc1OC |
| > 100 µM (inactive) | Cc1c(Cl)cccc1NC(=S)NCCC(c1ccccc1)c1ccccc1 |
| > 100 µM (inactive) | COc1cc([N+](=O)[O-])ccc1NC(=S)NCCC(c1ccccc1)c1ccccc1 |
| > 100 µM (inactive) | S=C(NCCC(c1ccccc1)c1ccccc1)Nc1ccc(Cl)cc1Cl |
| > 100 µM (inactive) | O=[N+]([O-])c1ccc(NC(=S)NCCC(c2ccccc2)c2ccccc2)cc1 |
| > 100 µM (inactive) | Cc1ccc(C)c(NC(=S)NCCC(c2ccccc2)c2ccccc2)c1 |
